Experimental data reported in patent publication US4439426A, “Semisynthetic macrolidic antibiotics, intermediate compounds for their preparation and related pharmaceutical compositions containing them” (priority 1981, dated 1984).
Converted amounts (≈) assume the structure as drawn.

Legend:
[1] = tested on: Pseudomonas aeruginosa LRP 9; assay: Bacteriostatic power in solid medium (MIC); format: cell-based; conditions: Pseudomonas aeruginosa, LRP9; solid medium; read-out: Minimum inhibiting concentration
Method in brief: (§1)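 Strains → exposure to the compound → lowest growth-inhibiting concentration noted as MIC. Aerobic and anaerobic organisms of both Gram groups.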

[2] = tested on: Streptococcus pneumoniae ATCC 6303 LRP 35; assay: Bacteriostatic power in solid medium (MIC); format: cell-based; conditions: Streptococcus pneumoniae, ATCC6303; solid medium; read-out: Minimum inhibiting concentration
Method in brief: as §1

[3] = tested on: Staphylococcus aureus ATCC 6538P LRP 14; assay: Bacteriostatic power in solid medium (MIC); format: cell-based; conditions: Staphylococcus aureus, ATCC6538P; solid medium; Penycilline resistant; read-out: Minimum inhibiting concentration
Method in brief: as §1

[4] = tested on: Staphylococcus aureus ATCC 6538P LRP 39; assay: Bacteriostatic power in solid medium (MIC); format: cell-based; conditions: Staphylococcus aureus, ATCC6538P; solid medium; read-out: Minimum inhibiting concentration
Method in brief: as §1

[5] = tested on: Streptococcus pneumoniae ATCC 6303 LRP 53; assay: Bacteriostatic power in solid medium (MIC); format: cell-based; conditions: Streptococcus pneumoniae, ATCC6303; solid medium; read-out: Minimum inhibiting concentration
Method in brief: as §1

[6] = tested on: Corynebacterium diphteriae LRP 24; assay: Bacteriostatic power in solid medium (MIC); format: cell-based; conditions: Corynebacterium, LRP24; solid medium; read-out: Minimum inhibiting concentration
Method in brief: as §1

[7] = tested on: Streptococcus pneumoniae ATCC 6303 LRP 52; assay: Bacteriostatic power in solid medium (MIC); format: cell-based; conditions: Streptococcus pneumoniae, ATCC6303; solid medium; read-out: Minimum inhibiting concentration
Method in brief: as §1

[8] = tested on: Streptococcus pyogenes ATCC 8668 LRP 34; assay: Bacteriostatic power in solid medium (MIC); format: cell-based; conditions: Streptococcus pyogenes, ATCC8668; solid medium; read-out: Minimum inhibiting concentration
Method in brief: as §1

[9] = tested on: Acholeplasma laidlawii ATCC 23206 LRP 204; assay: Bacteriostatic power in solid medium (MIC); format: cell-based; conditions: Acholeplasma laidlawii, ATCC23206; solid medium; read-out: Minimum inhibiting concentration
Method in brief: as §1

[10] = tested on: Bacteroides fragilis ATCC 23745 LRP 205; assay: Bacteriostatic power in solid medium (MIC); format: cell-based; conditions: Bacteroides fragilis, ATCC23745; solid medium; anaerobic; read-out: Minimum inhibiting concentration
Method in brief: as §1

[11] = tested on: Proteus vulgaris ATCC 6380 LRP 13; assay: Bacteriostatic power in solid medium (MIC); format: cell-based; conditions: Proteus vulgaris, ATCC6380; solid medium; read-out: Minimum inhibiting concentration
Method in brief: as §1

Shigella sonnei LRP 5 = assay: Bacteriostatic power in solid medium (MIC); format: cell-based; conditions: LRP5, read-out: Minimum inhibiting concentration
Method in brief: as §1

Escherichia coli LRP 50 = assay: Bacteriostatic power in solid medium (MIC); format: cell-based; conditions: Escherichia coli, LRP50, read-out: Minimum inhibiting concentration
Method in brief: as §1

[12] = tested on: Mycoplasma hominis I ATCC 14027 LRP 211; assay: Bacteriostatic power in solid medium (MIC); format: cell-based; conditions: Metamycoplasma hominis, ATCC14027; solid medium; read-out: Minimum inhibiting concentration
Method in brief: as §1

[13] = tested on: Micrococcus luteus ATCC 9341 LRP 6; assay: Bacteriostatic power in solid medium (MIC); format: cell-based; conditions: Micrococcus luteus, ATCC9341; solid medium; read-out: Minimum inhibiting concentration
Method in brief: as §1

[14] = tested on: Streptococcus pyogenes ATCC 8668 LRP 197; assay: Bacteriostatic power in solid medium (MIC); format: cell-based; conditions: Streptococcus pyogenes, ATCC8668; solid medium; read-out: Minimum inhibiting concentration
Method in brief: as §1

[15] = tested on: Staphylococcus aureus ATCC 14154 LRP 78; assay: Bacteriostatic power in solid medium (MIC); format: cell-based; conditions: Staphylococcus aureus, ATCC14154; solid medium; Erythromycin resistant; read-out: Minimum inhibiting concentration
Method in brief: as §1

[16] = tested on: Micrococcus luteus ATCC 15957 LRP 193; assay: Bacteriostatic power in solid medium (MIC); format: cell-based; conditions: Micrococcus luteus, ATCC15957; solid medium; Erythromycin resistant; read-out: Minimum inhibiting concentration
Method in brief: as §1

[17] = tested on: Streptococcus faecalis subsp. zymogenes ATCC 12958 LRP 61; assay: Bacteriostatic power in solid medium (MIC); format: cell-based; conditions: Enterococcus faecalis, ATCC12958; solid medium; read-out: Minimum inhibiting concentration
Method in brief: as §1

[18] = tested on: Neisseria gonorrhoeae ATCC 19424 LRP 214; assay: Bacteriostatic power in solid medium (MIC); format: cell-based; conditions: Neisseria gonorrhoeae, ATCC19424; solid medium; read-out: Minimum inhibiting concentration
Method in brief: as §1

[19] = tested on: Klelsiella pneumoniae LRP 54; assay: Bacteriostatic power in solid medium (MIC); format: cell-based; conditions: solid medium; read-out: Minimum inhibiting concentration
Method in brief: as §1

[20] = tested on: Haemophilus influenzae ATCC 19418 LRP 213; assay: Bacteriostatic power in solid medium (MIC); format: cell-based; conditions: Haemophilus influenzae, ATCC19418, read-out: Minimum inhibiting concentration
Method in brief: as §1

[21] = tested on: Streptococcus faecalis LRP 7; assay: Bacteriostatic power in solid medium (MIC); format: cell-based; conditions: Enterococcus faecalis, LRP7; solid medium; read-out: Minimum inhibiting concentration
Method in brief: as §1

[22] = tested on: Fusobacteriumnecrophroum ATCC 27852 LRP 210; assay: Bacteriostatic power in solid medium (MIC); format: cell-based; conditions: read-out: Minimum inhibiting concentration
Method in brief: as §1

Bacillus subtilis LRP 25 = assay: Bacteriostatic power in solid medium (MIC); format: cell-based; conditions: Bacillus subtilis, LRP25; solid medium; read-out: Minimum inhibiting concentration
Method in brief: as §1

[23] = tested on: Streptococcus pneumoniae ATCC 6303 LRP 35; assay: Minimum bactericidal concentration (MBC); format: cell-based
From the text: (§2) the bacterial power, expressed as the minimum bactericidal power (MBC) against some Gram positive aerobic stocks (table 5).

[24] = tested on: Staphylococcus aureus ATCC 6538 P LRP 39; assay: Minimum bactericidal concentration (MBC); format: cell-based
From the text: as §2

[25] = tested on: Corynebacterium diphteriae LRP 24; assay: Minimum bactericidal concentration (MBC); format: cell-based
From the text: as §2

[26] = tested on: Streptococcus pyogenes ATCC 8668 LRP 34; assay: Minimum bactericidal concentration (MBC); format: cell-based
From the text: as §2

[27] = tested on: Streptococcus faecalis subs. zymogenes LRP 61; assay: Minimum bactericidal concentration (MBC); format: cell-based
From the text: as §2

[28] = Stability in acidic environment at 25° C. (half-life of initial microbiological activity); format: physicochemical; conditions: aqueous solution
Procedure: Stability in acidic environnment at 25° C. of the novel
Note: t 1/2 represents the time for reducing to one half the initial powe
of the antibiotic determined by microbiological method through diffusion
on a plate using the test stock Microccocus luteus (Sarcina lutea) ATCC

[29] = tested on: Streptococcus pneumoniae ATCC 6303 LRP 35; assay: Bacteriostatic power in liquid medium (MIC); format: cell-based; conditions: Streptococcus pneumoniae, ATCC6303; liquid medium; read-out: Minimum inhibiting concentration
Method in brief: as §1

[30] = tested on: Staphylococcus aureus ATCC 6538 P LRP 39; assay: Bacteriostatic power in liquid medium (MIC); format: cell-based; conditions: Staphylococcus aureus, ATCC6538; liquid medium; read-out: Minimum inhibiting concentration
Method in brief: as §1

[31] = tested on: Corynebacterium diphteriae LRP 24; assay: Bacteriostatic power in liquid medium (MIC); format: cell-based; conditions: Corynebacterium, LRP24; liquid medium; read-out: Minimum inhibiting concentration
Method in brief: as §1

[32] = tested on: Streptococcus pyogenes ATCC 8668 LRP 34; assay: Bacteriostatic power in liquid medium (MIC); format: cell-based; conditions: Streptococcus pyogenes, ATCC8668; liquid medium; read-out: Minimum inhibiting concentration
Method in brief: as §1

[33] = tested on: Streptococcus faecalis subs. zymogenes ATCC 12958 LRP 61; assay: Bacteriostatic power in liquid medium (MIC); format: cell-based; conditions: Enterococcus faecalis, ATCC12958; liquid medium; read-out: Minimum inhibiting concentration
Method in brief: as §1

[34] = tested on: Clostridium perfrigens ATCC 3624 LRP 206; assay: microbe, parasite or virus in culture; format: cell-based; conditions: ATCC3624, solid medium, anaerobic, read-out: Minimum inhibiting concentration
From the text: (§3) the bacteriostatic power, expressed as the minimum inhibiting concentration (MIC) against both aerobic and anaerobic, Gram positive and Gram negative, bacterial stocks: the related results are reported in the tables 2 and 3.

Salmonella typhy LRP 8 = assay: microbe, parasite or virus in culture; format: cell-based; conditions: LRP8, solid medium, read-out: Minimum inhibiting concentration
From the text: as §3

## CC[C@H]1OC(=O)[C@H](C)[C@@H](O[C@H]2C[C@@](C)(O)[C@@H](O)[C@H](C)O2)[C@H](C)[C@@H](O[C@@H]2O[C@H](C)C[C@H](N(C)C)[C@H]2O)[C@](C)(O)C[C@](C)(F)C(=O)[C@H](C)[C@@H](O)[C@]1(C)O [P-80205, (8S)-8-fluoroerythromycin C]
[1]
  MIC: 25 µg/mL (≈ 33.9 µM)
[2]
  MIC: 0.024 µg/mL (≈ 0.0325 µM)
[3]
  MIC: 0.097 µg/mL (≈ 0.131 µM)
[4]
  MIC: 0.097 µg/mL (≈ 0.131 µM)
[5]
  MIC: 0.024 µg/mL (≈ 0.0325 µM)
[6]
  MIC: 0.012 µg/mL (≈ 0.0163 µM)
[7]
  MIC: 0.012 µg/mL (≈ 0.0163 µM)
[8]
  MIC: 0.024 µg/mL (≈ 0.0325 µM)
[9]
  MIC: 3.12 µg/mL (≈ 4.23 µM)
[10]
  MIC: 0.78 µg/mL (≈ 1.06 µM)
[11]
  MIC: 25 µg/mL (≈ 33.9 µM)
Shigella sonnei LRP 5
  MIC: 25 µg/mL (≈ 33.9 µM)
Escherichia coli LRP 50
  MIC: 12.5 µg/mL (≈ 16.9 µM)
[12]
  MIC: 25 µg/mL (≈ 33.9 µM)
[13]
  MIC: 0.012 µg/mL (≈ 0.0163 µM)
[14]
  MIC: 0.024 µg/mL (≈ 0.0325 µM)
[15]
  MIC: 25 µg/mL (≈ 33.9 µM)
[16]
  MIC: 25 µg/mL (≈ 33.9 µM)
[17]
  MIC: 0.097 µg/mL (≈ 0.131 µM)
[18]
  MIC: 0.195 µg/mL (≈ 0.264 µM)
[19]
  MIC: 25 µg/mL (≈ 33.9 µM)
[20]
  MIC: 12.5 µg/mL (≈ 16.9 µM)
[21]
  MIC: 0.097 µg/mL (≈ 0.131 µM)
[22]
  MIC: 12.5 µg/mL (≈ 16.9 µM)
Bacillus subtilis LRP 25
  MIC: 0.097 µg/mL (≈ 0.131 µM)
[23]
  MBC/MIC: 2
[23]; Streptococcus pneumoniae, ATCC6303, read-out: Minimum bactericidal concentration (MBC)
  MBC: 0.195 µg/mL (≈ 0.264 µM)
[24]
  MBC/MIC: 16
[24]; Staphylococcus aureus, ATCC6538, read-out: Minimum bactericidal concentration (MBC)
  MBC: 3.12 µg/mL (≈ 4.23 µM)
[25]
  MBC/MIC: 8
[25]; Corynebacterium, LRP24, read-out: Minimum bactericidal concentration (MBC)
  MBC: 0.39 µg/mL (≈ 0.529 µM)
[26]
  MBC/MIC: 16
[26]; Streptococcus pyogenes, ATCC8668, read-out: Minimum bactericidal concentration (MBC)
  MBC: 0.78 µg/mL (≈ 1.06 µM)
[27]
  MBC/MIC: > 8
[27]; Enterococcus faecalis, read-out: Minimum bactericidal concentration (MBC)
  MBC: > 3.12 µg/mL
[28]; pH 2
  half-life: 99 min
[28]; pH 3
  half-life: 2490 min
[29]
  MIC: 0.097 µg/mL (≈ 0.131 µM)
[30]
  MIC: 0.195 µg/mL (≈ 0.264 µM)
[31]
  MIC: 0.049 µg/mL (≈ 0.0664 µM)
[32]
  MIC: 0.049 µg/mL (≈ 0.0664 µM)
[33]
  MIC: 0.39 µg/mL (≈ 0.529 µM)
[34]
  MIC: 6.25 µg/mL (≈ 8.47 µM)
Salmonella typhy LRP 8
  MIC: 12.5 µg/mL (≈ 16.9 µM)
